Experimental data taken from patent US20230133445A1, “COMPOSITIONS AND METHODS FOR IMPROVING THE APPEARANCE OF SKIN” (L'Oreal, priority 2021, published 2023).

Assays:
Neutrophil Elastase = target: T1, Neutrophil Elastase (Homo sapiens, UniProt P08246); assay: Neutrophil Elastase (NE) Inhibition in tubo assay (MAK213, Sigma-Aldrich); format: biochemical
T1 construct: purchased Sigma-Aldrich MAK213
T1 sequence (P08246 30-267): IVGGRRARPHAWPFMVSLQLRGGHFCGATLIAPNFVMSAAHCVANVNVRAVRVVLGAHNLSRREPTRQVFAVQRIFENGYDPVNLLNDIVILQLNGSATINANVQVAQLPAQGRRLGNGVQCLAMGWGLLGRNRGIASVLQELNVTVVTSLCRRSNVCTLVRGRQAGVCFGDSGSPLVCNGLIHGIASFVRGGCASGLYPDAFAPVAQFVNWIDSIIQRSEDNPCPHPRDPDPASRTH
Method: The ability of acetyl trifluoromethylphenyl valylglycine (“ATV”), glycolic acid, and/or lactic acid to inhibit the elastin-hydrolyzing effect of elastase was evaluated in a Neutrophil Elastase (NE) Inhibition in tubo assay (MAK213, Sigma-Aldrich, MO). Neutrophil Elastase activity was measured by hydrolyzing the substrate to yield a fluorescent product (λex=400/λem=505 nm) proportional to the enzymatic activity present.
A 4× sample inhibitor solution of the each tested chemical peeling agent and acetyl trifluoromethylphenyl valylglycine, and every combination provided in FIGS. 1 and 2 was prepared. The inhibitor/positive control (Elastase Inhibitor, SPCK, AG Scientific), enzyme/negative control (contains elastase), neutrophil elastase, and substrate solutions were prepared. The test compounds, controls, and neutrophil elastase were added to a 96-well plate, protected from light, and incubated at 37° C. for 5 minutes. The elastin substrate was then added to each well and the fluorescence (FLU, λex=400 nm, λem=505 nm) was measured every minute for thirty minutes at 37° C. The slope of the plot (time vs FLU) was taken. Relative inhibition was calculated as follows: […]

[1] = format: in vitro ADME, human
Method: Human skin samples were obtained from abdominal surgery. Excess subcutaneous fat was removed, if necessary. Skin samples were excised and cut into pieces of around 2 cm×2 cm. Thickness was measured and transepidermal water loss (TEWL) was measured. The human skin was included in the study if the TEWL was between 0.5 and 13 g/m^2/h for abdominal skin. The 2 cm^2 skin samples were kept in a static cell in a diffusion chamber in a Franz cell horizontal cell clamp system (Crown Glass Company, Inc.) and maintained at a constant temperature of 32° C.±1° C. The static cells consist of a donor chamber and a receptor chamber with a 7 mL receptor fluid compartment separated by the skin.
The cells were placed on a magnetic stirrer which was integrated with a fixed temperature water bath maintained in order to have 32° C.±1° C. at the skin surface. The receptor compartment of each cell was filled with the receptor fluid (PBS) and was continuously stirred. The skin samples were placed on the receptor compartment. The donor compartment was then placed onto the skin samples. […]
A composition containing 2 wt % acetyl trifluoromethylphenyl valylglycine was applied to the skin sample at a rate of 10 mg/cell using a positive displacement pipette and the exact amount applied was determined by weight then recorded (Sartorius Entris II Essential Analytical balance, Thermo-Fisher). […]
The skin was then stripped with consistent weight and time of application. […] The strips samples were stored with solvent (methanol) at −20° C. for a maximum of 5 days before being analyzed. […] The RS vials were stored with solvent (methanol) at −20° C. for a maximum of 7 days before being analyzed. Dermis and epidermis samples were stored with solvent at −20° C. for a maximum of 7 days before being analyzed. The receptor fluid was taken 16 hours after the application and the samples were analyzed.
Receptor fluid samples were stored at −20° C. for a maximum of 6 days before being analyzed. […] Samples were stored at −20° C. for a maximum of 5 days before being analyzed.
The final extract was analyzed by LC-MS/MS. […]

## CC(=O)N(c1cccc(C(F)(F)F)c1)C(C(=O)NCC(=O)O)C(C)C (stereo not shown) [ATV, acetyl trifluoromethylphenyl valylglycine]
Neutrophil Elastase; Table 1, 0.0125 wt % ATV
  Average Inhibition (%): 12.49%
Neutrophil Elastase; Table 1, 0.025 wt % ATV
  Average Inhibition (%): 14.97%
Neutrophil Elastase; Table 1, 0.0625 wt % ATV
  Average Inhibition (%): 18.36%
Neutrophil Elastase; Table 2, 0.0125 wt % ATV
  Average Inhibition (%): 4.93%
Neutrophil Elastase; Table 2, 0.025 wt % ATV
  Average Inhibition (%): 9.311%
Neutrophil Elastase; Table 2, 0.0625 wt % ATV
  Average Inhibition (%): 11.96%
[1]
  amount penetrated through the stratum corneum: about 0.08 wt %
  amount penetrating past the stratum corneum barrier into epidermis, dermis and receptor fluid: about 0.8%
  dermal dose of the 2 wt % preparation: at least 0.08 wt %

## O=C(O)CO [Glycolic Acid, reference compound]
Neutrophil Elastase; Table 1, 0.125 wt % Glycolic Acid
  Average Inhibition (%): 15.8949%
Neutrophil Elastase; Table 1, 0.625 wt % Glycolic Acid
  Average Inhibition (%): 23.89%

## CC(O)C(=O)O (stereo not shown) [Lactic Acid, reference compound]
Neutrophil Elastase; Table 2, 0.125 wt % Lactic Acid
  Average Inhibition (%): 8.507%
Neutrophil Elastase; Table 2, 0.625 wt % Lactic Acid
  Average Inhibition (%): 24.09%
